Results taken from patent US20070243244A1 (priority 2005, published 2007).
Where two headings read alike, the source gives them in different places.

Columns and labels:
[1] = oral bioavailability of encapsulated microparticulate (100 mg) enteric coated formulation (Example 3); set-up: species or system cynomolgus monkeys; details: cynomolgus monkey, in vivo
Procedure: Each 100 mg capsule contained 478.5 mg enteric coated granules. […] The monkeys were housed in Bioresources vivarium with free access to water and food. The four monkeys received the oral formulation described above (1×100 mg multi-particulate capsule). The formulation was administered with 10 mL water. All monkeys were fasted overnight prior to dosing (with free access to water) and were fed 4 hours after dose administration. […] Approximately 3 mL of blood were drawn into Vacutainer® tubes containing sodium heparin as the anticoagulant. Plasma was separated in a refrigerated centrifuge and stored at -70° C. Plasma samples were delivered to the assay site packed on dry ice.

[2] = pharmacokinetics after single oral (gavage) and intravenous dose in 0.9% saline (Example 2); set-up: species or system cynomolgus monkeys; details: male, cynomolgus monkey, in vivo; for Vd: Vdss
Procedure: Four male cynomolgus monkeys were used in the study. […] The dosing volume was 10 mL/kg.
By using 0.2 mL of monkey plasma sample, the assay limit of quantitation (LOQ) was 100 ng/mL and the curve range was between 100 and 6400 ng/mL.
AUC0-4 was calculated by AUC0-t+Ct/λ, where AUC0-t was the AUC from time 0 to t, the last quantifiable time point and Ct was the last quantifiable concentration. […] Systemic clearance (CLT) after the iv dose was calculated using the formula of Dose/AUC0-4.

[3] = systemic clearance in dogs; details: dog, in vivo, after a single 5 mg/kg dose, read-out: systemic clearance (ClT) in dogs (converted)
solubility in water = type: physicochemical; details: over the entire pH range of 1 to 14
[4] = cell monolayer permeability studies; type: in vitro ADME; details: 1 mM in ethanol and buffer, pH 6 to 6.4
[5] = iv, 5 mg/kg, Plasma Concentrations
[6] = po, 15 mg/kg, Plasma Concentrations
[7] = po, 15 mg/kg, Plasma Concentrations, Mean
[8] = cynomolgus, iv, 5 mg/kg, Plasma Concentrations
[9] = cynomolgus, iv, 5 mg/kg, Plasma Concentrations, Mean

## CN(C)c1cc(NC(=O)CNC(C)(C)C)c(O)c2c1C[C@H]1C[C@H]3[C@H](N(C)C)C(O)=C(C(N)=O)C(=O)[C@@]3(O)C(O)=C1C2=O [Tigecycline]
[1]; fasted male cynomolgus monkeys, single oral dose 100 mg encapsulated microparticulate capsule, 1 hr, individual animals, read-out: Plasma Concentrations
  concentration at 1 hr: 113 ng/mL
[1]; fasted male cynomolgus monkeys, single oral dose 100 mg encapsulated microparticulate capsule, 3 hr, individual animals, read-out: Plasma Concentrations
  concentration at 3 hr: 174 ng/mL
[1]; fasted male cynomolgus monkeys, single oral dose 100 mg encapsulated microparticulate capsule, 4 hr, individual animals, read-out: Plasma Concentrations
  concentration at 4 hr: 113 ng/mL
[1]; male
  AUC/Dose, Mean: 174
  Cmax/Dose, Mean: 14.0
[1]; male, po, 16 mg/kg
  AUC/Dose: 174
  Cmax/Dose: 14.0
  Cmax: 225 ng/mL
[1]; male, po, 16 mg/kg, AUC0/t or 0-∞
  AUC: 2830 ng·h/mL
[1]; male, po, 16 mg/kg, Bioavailability
  bioavailability: 4.8%
[1]; male, po, 16 mg/kg, absolute bioavailability of tigecycline in the blood
  bioavailability: 5%
[1]; male, po, 16 mg/kg, t1/2
  half-life: 12.1 h
[1]; male, po, 16 mg/kg, tmax
  Tmax: 2.25 h
[1]; male, po, 100 mg
  Tmax: 3.0 h
[1]; male, po, 100 mg, AUC0-∞, Mean
  AUC(0-inf): 2830 ng·h/mL
[1]; male, po, 100 mg, AUC0/24, Mean
  AUC: 2130 ng·h/mL
[1]; male, po, 100 mg, Mean
  Cmax: 225 ng/mL
[1]; male, po, 100 mg, T1/2
  half-life: 9.48 h
[1]; male, po, 100 mg, T1/2, Mean
  half-life: 12.1 h
[1]; male, po, 100 mg, Tmax
  Tmax: 2 h
[1]; male, po, 100 mg, Tmax, Mean
  Tmax: 2.25 h
[2]; 15 mg/kg
  AUC: 18300 ng·h/mL
[2]; 15 mg/kg, Cmax
  Cmax: 15100 ng/mL
[2]; 15 mg/kg, t1/2
  half-life: 14.1 h
[2]; iv, 5 mg/kg
  AUC(0-t): 18200 ng·h/mL
  ClT, Mean: 4.67 mL/min/kg
  MRTiv, Mean: 12.8 h
[2]; iv, 5 mg/kg, 0 hr
  Plasma Concentrations: <100 ng/mL
[2]; [5]
  concentration at 0 hr: < 100 ng/mL
  concentration at 0.5 hr: 3340 ng/mL
  concentration at 1 hr: 1660 ng/mL
  concentration at 12 hr: 265 ng/mL
  concentration at 24 hr: 155 ng/mL
  concentration at 32 hr: < 100 ng/mL
  concentration at 48 hr: < 100 ng/mL
[2]; iv, 5 mg/kg, Mean
  Vd: 3.47 L/kg
[2]; iv, 5 mg/kg, t1/2
  half-life: 11.4 to 19.1 h
[2]; iv, 5 mg/kg, t1/2, Mean
  half-life: 14.1 h
[2]; po, 15 mg/kg
  AUC: 163 ng·h/mL
  detected in samples up to (time post-dose): up to 2 hours
[2]; po, 15 mg/kg, 0 h
  Plasma Concentrations: <100 ng/mL
[2]; po, 15 mg/kg, 4 hr
  Plasma Concentrations: <100 ng/mL
[2]; po, 15 mg/kg, 6 hr
  Plasma Concentrations: <100 ng/mL
[2]; po, 15 mg/kg, 8 hr
  Plasma Concentrations: <100 ng/mL
[2]; po, 15 mg/kg, 12 hr
  Plasma Concentrations: <100 ng/mL
[2]; po, 15 mg/kg, 24 h
  Plasma Concentrations: <100 ng/mL
[2]; po, 15 mg/kg, 32 h
  Plasma Concentrations: <100 ng/mL
[2]; po, 15 mg/kg, 48 h
  Plasma Concentrations: <100 ng/mL
[2]; po, 15 mg/kg, AUC0-t, Mean
  AUC(0-t): 163 ng·h/mL
[2]; po, 15 mg/kg, Cmax
  Cmax: 163 ng/mL
[2]; [6]
  concentration at 0 h: < 100 ng/mL
  concentration at 0.5 h: < 100 ng/mL
  concentration at 1 hr: 114 ng/mL
  concentration at 2 hr: 131 ng/mL
  concentration at 4 hr: < 100 ng/mL
  concentration at 6 hr: < 100 ng/mL
  concentration at 8 hr: < 100 ng/mL
  concentration at 12 hr: < 100 ng/mL
  concentration at 24 h: < 100 ng/mL
  concentration at 32 h: < 100 ng/mL
  concentration at 48 h: < 100 ng/mL
[2]; [7]
  concentration at 0 h: 0 ng/mL
  concentration at 0.5 h: 55.5 ng/mL
  concentration at 1 h: 131 ng/mL
  concentration at 2 h: 118 ng/mL
  concentration at 4 h: 0 ng/mL
  concentration at 6 h: 0 ng/mL
  concentration at 8 h: 0 ng/mL
  concentration at 12 h: 0 ng/mL
  concentration at 24 h: 0 ng/mL
  concentration at 32 h: 0 ng/mL
  concentration at 48 h: 0 ng/mL
[2]; po, 15 mg/kg, tmax
  Tmax: 1.8 h
[2]; po, 15 mg/kg, tmax, Mean
  Tmax: 1.8 h
[2]; monkeys, single oral (gavage) dose of 15 mg/kg, 2 hr, individual animals, read-out: Plasma Concentrations
  concentration at 2 hr: 191 ng/mL
[2]; cynomolgus, iv, 5 mg/kg, Cmax, Mean
  Cmax: 15100 ng/mL
[2]; cynomolgus, iv, 5 mg/kg, Mean
  AUC(0-t): 18300 ± 3030 ng·h/mL
  Vd: 3.47 ± 1.09 L/kg
[2]; [8]
  concentration at 2 hr: 1010 ng/mL
  concentration at 4 hr: 588 ng/mL
  concentration at 6 hr: 431 ng/mL
  concentration at 8 hr: 372 ng/mL
[2]; [9]
  concentration at 0 hr: 0 ng/mL
  concentration at 0.083 hr: 15100 ng/mL
  concentration at 0.5 hr: 2250 ng/mL
  concentration at 1 hr: 1400 ng/mL
  concentration at 2 hr: 1090 ng/mL
  concentration at 4 hr: 697 ng/mL
  concentration at 6 hr: 499 ng/mL
  concentration at 8 hr: 392 ng/mL
  concentration at 12 hr: 264 ng/mL
  concentration at 24 hr: 162 ng/mL
  concentration at 32 hr: 31.8 ng/mL
  concentration at 48 hr: 27 ng/mL
[2]; cynomolgus, iv, 5 mg/kg, t1/2
  half-life: 12.8 h
[2]; cynomolgus, iv, 5 mg/kg, t1/2, Mean
  half-life: 14.1 ± 3.4 h
[2]; cynomolgus, po, 15 mg/kg
  Tmax: 1.0 h
[2]; cynomolgus, po, 15 mg/kg, Cmax
  Cmax: 178 ng/mL
[2]; cynomolgus, po, 15 mg/kg, Cmax, Mean
  Cmax: 163 ± 27.1 ng/mL
[2]; cynomolgus, po, 15 mg/kg, tmax
  Tmax: 1 to 2 h
[2]; cynomolgus, monkeys, single oral (gavage) dose of 15 mg/kg, individual animals, read-out: Cmax
  Cmax: 191 ng/mL
[3]
  clearance: ~4.33 mL/min/kg
Solubility in water
  solubility: > 295 mg/mL
[4]
  Papp at 1 mM: 0.04 ×10⁻⁶ cm/s
